Experimental data from patent publication US6469002B1, “Imidazolidine compounds” (Millennium Pharmaceuticals, Inc., priority 2001, dated 2002).

Molecular target: T1, CXCR3 (Homo sapiens, UniProt P49682)
T1 construct: expressed in transfected cells
T1 sequence (P49682 1-368): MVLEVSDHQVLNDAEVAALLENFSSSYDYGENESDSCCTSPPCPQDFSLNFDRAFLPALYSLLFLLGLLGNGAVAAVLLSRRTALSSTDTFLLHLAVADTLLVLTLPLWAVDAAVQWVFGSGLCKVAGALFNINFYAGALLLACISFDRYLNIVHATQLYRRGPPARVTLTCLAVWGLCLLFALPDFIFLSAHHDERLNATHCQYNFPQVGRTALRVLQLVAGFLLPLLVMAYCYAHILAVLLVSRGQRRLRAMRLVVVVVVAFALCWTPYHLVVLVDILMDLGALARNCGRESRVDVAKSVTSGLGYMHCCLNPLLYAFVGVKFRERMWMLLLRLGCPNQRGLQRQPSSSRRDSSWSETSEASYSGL
Experiment: CXCR3/IP-10 radioligand binding (125I-IP-10 competition, CXCR3.L1/2 cell membranes)
Conditions: Table 6; test compound 10 μmol/L; 125I-labeled IP-10 binding to CXCR3.L1/2 transfectant cell membrane
Excerpt: The activity of the compounds of the present invention can be assessed using a suitable assay, such as a receptor binding assay, a chemotaxis assays, an extracellular acidification assay or a calcium flux assay (see, for example, Hesselgesser et al., J. Biol. Chem. 273(25):15687-15692 (1998) and WO 98/02151). For example, as described herein, small organic molecule antagonists of CXCR3/IP-10 binding have been identified utilizing cells engineered to express recombinant human CXCR3 (CXCR3.L1/2) and which bind ^125I-IP-10 and chemotax in response to IP-10, Mig or I-TAC. Specifically, a high through-put receptor binding assay, which monitors ^125I-IP-10 binding to CXCR3.L1/2 cell membranes, was used to identify small molecule antagonists which block binding of IP-10, Mig or I-TAC to CXCR3.
CXCR3.L1/2 cells were pelleted by centrifugation and stored at −80° C. The cells were lysed by thawing and resuspending at about 1.5×10^7 cells/ml in a hypotonic buffer (5 m mol/L HEPES (pH 7.2), 2 mmol/L EDTA, 10 μg/ml each leupeptin, aprotinin, and chymostatin, and 100 μg/ml PMSF (all from Sigma, St. Louis)). Nuclei and cellular debris was removed by centrifugation ([…], at 4° C.) for 10 min. The supematant was transferred to chilled centrifuge tubes (Nalge, Rochester, N.Y.) and the membrane fraction was recovered by centrifugation (25,000 g at 4° C.) for 45 min. The membrane pellet was resuspended in freezing buffer (10 mM HEPES (pH 7.2), 300 mmol/L Sucrose, 5 μg/ml each of leupeptin, aprotinin, and chymostatin, and 10 μg/ml PMSF). The total protein concentration was determined using a coomassie blue staining protein concentration assay kit (BioRad). The membrane preparation was aliquoted and stored at −80° C. until time of use.
CXCR3/IP-10 binding was performed in 96-well polypropylene plates (Costar) in a final volume of 0.1 ml of HBB buffer (50 mmol/L Hepes pH 7.4, 1 mmol/L CaCl2, 5 mmol/L MgCl2, 0.02% sodium azide, 0.5% BSA (bovine serum albumin)) containing 1 to 5 μg of CXCR3.L1/2 transfectant cell membrane protein and 0.05 to 0.2 nmol/L ^125I-labeled IP-10 (NEN, Boston, Mass.). Competition binding experiments were performed by including variable concentrations of unlabeled IP-10 or test compound. Nonspecific binding was determined following the addition of a 250 nmol/L unlabelled IP-10. Samples were incubated for 60 min at room temperature, and bound and free tracer (^125I-IP10) were separated by filtration through 96-well GF/B filterplates (Packard) presoaked in 0.3% polyethyleneimine. The filters were washed in HBB further supplemented with 0.5 mol/L NaCl, dried, and the amount of bound radioactivity determined by liquid scintillation counting. The competition is presented as the percent specific binding as calculated by 100×[(S-B)/(T-B)], where S is the radioactivity bound for each sample, B is background binding, and T is total bound in the absence of competitors. Duplicates were used throughout the experiments.

SMILES	inhibition at 10 µM
CCN(CCN1CCN(C(=O)c2cc(C)cc(C)c2)C1=C(C#N)C#N)Cc1ccc(CN2CCCCC2)cc1 [Compound 25, 1-[2-{N-Ethyl-N-(4-(1-piperidinomethyl)benzyl)amino}ethyl]-3-(3,5-dimethylbenzoyl)-2-imidazolidinylidenepropanedinitrile]	99%
CCN(CCN1CCN(Cc2cc(C)cc(C)c2)C1=C(C#N)C#N)C(=O)c1ccc(CN2CCCCC2)cc1 [Compound 26, 1-[2-{N-Ethyl-N-(4-(1-piperidinomethyl)benzoyl)amino}ethyl]-3-(3,5-dimethylbenzyl)-2-imidazolidinylidenepropanedinitrile]	64%
CCN(CCN1CCN(Cc2cccc3ccccc23)C1=C(C#N)C#N)C(=O)c1ccc(CN2CCCCC2)cc1 [Compound 27, 1-[2-{N-Ethyl-N-(4-(1-piperidinomethyl)benzoyl)amino}ethyl]-3-(1-naphthylmethyl)-2-imidazolidinylidenepropanedinitrile]	72%
CCN(CCN1CCN(Cc2cc(Cl)cc(Cl)c2)C1=C(C#N)C#N)C(=O)c1ccc(CN2CCCCC2)cc1 [Compound 28, 1-[2-{N-Ethyl-N-(4-(1-piperidinomethyl)benzoyl)amino}ethyl]-3-(3,5-dichlorobenzyl)-2-imidazolidinylidenepropanedinitrile]	41%
CCCNCc1ccc(C(=O)N(CC)CCN2CCN(Cc3cc(C)cc(C)c3)C2=C(C#N)C#N)cc1 [Compound 29, 1-[2-{N-Ethyl-N-(4-(-1-propylaminomethyl)benzoyl)amino}ethyl]-3-(3,5-dimethylbenzyl)-2-imidazolidinylidenepropanedinitrile]	51%
CCCNCc1ccc(C(=O)N(CC)CCN2CCN(Cc3cc(Cl)cc(Cl)c3)C2=C(C#N)C#N)cc1 [Compound 30, 1-[2-{N-Ethyl-N-(4-(1-propylaminomethyl)benzoyl)amino}ethyl]-3-(3,5-dichlorobenzyl)-2-imidazolidinylidenepropanedinitrile]	73%
